# Reference: patent publication US9193731B2, “Antimicrobial compounds and methods of making and using the same” (Melinta Therapeutics, Inc., priority 2009, dated 2015)
# Test system: Escherichia coli strain ATCC25922
# Test: standard microdilution assay to determine minimum inhibitory concentrations (MICs)
# Type: cell-based
# Conditions: Escherichia coli strain ATCC25922, microdilution
# Procedure, shortened: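 Broth microdilution MIC against E. coli ATCC25922, following CLSI protocols, typically in a 100 microliter final volume. Results reported as +/− relative to a 16 micrograms/ml cutoff.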
row,Compound,E. coli ATCC25922 MIC
1,NCCCNCc1ccc(-n2cc3cc(-c4cccc(S(=O)(=O)NC5CCNCC5)c4)[nH]c3nc2=O)cc1 [Compound 823],+ (a “+” indicates that the compound has an MIC value of 16 micrograms/ml or less)
2,N=C(N)NCCCNCc1ccc(-n2cc3cc(-c4cccc(CCCCN)c4)[nH]c3nc2=O)cc1 [Compound 1380],+ (a “+” indicates that the compound has an MIC value of 16 micrograms/ml or less)
3,N=C(N)NCCCNCc1ccc(-n2cc3cc(-c4cc(C=CCCN)cc(OC(F)(F)F)c4)[nH]c3nc2=O)cc1 [Compound 2045a],+ (a “+” indicates that the compound has an MIC value of 16 micrograms/ml or less)
4,N=C(N)NCCCNCc1ccc(-n2cc3cc(C4CCN(CC(F)CN)C4)[nH]c3nc2=O)cc1 (stereo not drawn) [Compound 2000a],+ (a “+” indicates that the compound has an MIC value of 16 micrograms/ml or less)
5,CCNCCc1cc(OCC(F)CN)cc(-c2cc3cn(-c4ccc(CNCCCNC(=N)N)cc4)c(=O)nc3[nH]2)c1 (stereo not drawn) [Compound 2033a],+ (a “+” indicates that the compound has an MIC value of 16 micrograms/ml or less)
6,N=C(N)NCCCNC(=O)Cn1cc2cc(-c3ccc(S(=O)(=O)NC4CCNCC4)cc3)[nH]c2nc1=O [Compound 1289],− (a “−” indicates that the compound has an MIC value greater than 16 micrograms/ml)
7,N=C(N)NCCCNCc1ccc(-n2cc3cc(-c4cccc(C(NC5CN(C(=N)N)C5)C(F)(F)F)c4)[nH]c3nc2=O)cc1 (stereo not drawn) [Compound 2024a],+ (a “+” indicates that the compound has an MIC value of 16 micrograms/ml or less)
8,N=C(N)NCCCNCc1ccc(-n2cc3cc(-c4cc(OC(F)(F)F)cc(SCCCN)c4)[nH]c3nc2=O)cc1 [Compound 2047a],+ (a “+” indicates that the compound has an MIC value of 16 micrograms/ml or less)
9,N=C(N)NCCCNCc1ccc(-n2cc3cc(-c4cc(CNCCc5ccc(F)cc5)cc(N5CCNCC5)c4)[nH]c3nc2=O)cc1 [Compound 1044],+ (a “+” indicates that the compound has an MIC value of 16 micrograms/ml or less)
10,N=C(N)NCCCNCc1ccc(-n2cc3cc(-c4ccc(S(=O)(=O)N(Cc5ccccc5SC(F)(F)F)C5CCNCC5)cc4)[nH]c3nc2=O)cc1 [Compound 756],+ (a “+” indicates that the compound has an MIC value of 16 micrograms/ml or less)
11,N=C(N)NCCCNCc1ccc(-n2cc3cc(-c4ccc(C(NC5CNC5)C(F)F)cc4)[nH]c3nc2=O)cc1 (stereo not drawn) [Compound 1462],+ (a “+” indicates that the compound has an MIC value of 16 micrograms/ml or less)
12,CCn1cc(CCCN(C2CCNCC2)S(=O)(=O)c2ccc(-c3cc4cn(-c5ccc(CNCCCNC(=N)N)cc5)c(=O)nc4[nH]3)cc2)cn1 [Compound 837],+ (a “+” indicates that the compound has an MIC value of 16 micrograms/ml or less)
13,N=C(N)NCCCN1CC=C(n2cc3cc(-c4ccc(S(=O)(=O)N(CCCC5CCCC5)C5CCNCC5)cc4)[nH]c3nc2=O)CC1 [Compound 967],+ (a “+” indicates that the compound has an MIC value of 16 micrograms/ml or less)
14,Cc1cc([N+](=O)[O-])nn1CCCN(C1CCNCC1)S(=O)(=O)c1ccc(-c2cc3cn(-c4ccc(CNCCCNC(=N)N)cc4)c(=O)nc3[nH]2)cc1 [Compound 998],+ (a “+” indicates that the compound has an MIC value of 16 micrograms/ml or less)
15,COCCOCCc1cc(OCC(F)CN)cc(-c2cc3cn(-c4ccc(CNCCCNC(=N)N)cc4)c(=O)nc3[nH]2)c1 (stereo not drawn) [Compound 2035a],− (a “−” indicates that the compound has an MIC value greater than 16 micrograms/ml)
16,N=C(N)NCCCNCc1ccc(-n2cc3cc(-c4cc(CCO)cc(OCC(F)CN)c4)[nH]c3nc2=O)cc1 (stereo not drawn) [Compound 2004a],− (a “−” indicates that the compound has an MIC value greater than 16 micrograms/ml)
17,CN(CCCO)Cc1cc(-c2cc3cn(-c4ccc(CNCCCNC(=N)N)cc4)c(=O)nc3[nH]2)cc(N2CCNCC2)c1 [Compound 937],+ (a “+” indicates that the compound has an MIC value of 16 micrograms/ml or less)
18,N=C(N)NCCCNCc1ccc(-c2cn3cc(C(=O)Nc4cccc(OC(F)(F)F)c4)[nH]c3nc2=O)cc1 [Compound 974],− (a “−” indicates that the compound has an MIC value greater than 16 micrograms/ml)
19,N=C(N)NCC(O)CNCc1ccc(-n2cc3cc(-c4ccc(S(=O)(=O)NC5CN(C(=N)N)C5)cc4)[nH]c3nc2=O)cc1 (stereo not drawn) [Compound 1417],+ (a “+” indicates that the compound has an MIC value of 16 micrograms/ml or less)
20,N=C(N)NCCCNCc1ccc(-n2cc3cc(C4CCCN(Cc5cnc[nH]5)C4)[nH]c3nc2=O)cc1 (stereo not drawn) [Compound 2003a],− (a “−” indicates that the compound has an MIC value greater than 16 micrograms/ml)
21,NC1CCN(Cc2ccc(-n3cc4cc(-c5ccc(S(=O)(=O)N(CCCn6cnnc6)C6CCNCC6)cc5)[nH]c4nc3=O)cc2)C1 (stereo not drawn) [Compound 1220],− (a “−” indicates that the compound has an MIC value greater than 16 micrograms/ml)
22,N=C(N)NCCCNC(=O)c1ccc(-n2cc3cc(-c4cc(CCCCN)cc(OC(F)(F)F)c4)[nH]c3nc2=O)cc1 [Compound 2048a],+ (a “+” indicates that the compound has an MIC value of 16 micrograms/ml or less)
23,N=C(N)NCCCNC(=O)c1ccc(-n2cc3cc(-c4ccc(S(=O)(=O)N(CCCC5CCCC5)C5CCNCC5)cc4)[nH]c3nc2=O)cc1 [Compound 1011],+ (a “+” indicates that the compound has an MIC value of 16 micrograms/ml or less)
24,CC(CN)CN1CCC(c2cc3cn(-c4ccc(CNCCCNC(=N)N)cc4)c(=O)nc3[nH]2)C1 (mixture of isomers) [Compound 2008a],+ (a “+” indicates that the compound has an MIC value of 16 micrograms/ml or less)

# Same assay, conditions: Escherichia coli, ATCC25922, Escherichia coli strain ATCC25922, microdilution; read-out: E. coli ATCC25922 MIC
row,Compound,MIC [µg/mL]
1,NCCCNCc1ccc(-n2cc3cc(Cc4ccccc4)[nH]c3nc2=O)cc1 [Compound 621],> 16
2,N=C(N)NCCCNCc1ccc(-n2cc3cc(CCN[C@H]4CCCNC4)[nH]c3nc2=O)cc1 [Compound 817],< 16
3,NCCCc1cccc(-c2cc3cn(-c4ccc(C(N)=O)cc4)c(=O)nc3[nH]2)c1 [Compound 2056a],> 16
4,O=C1CC[C@@H](COc2cccc(-n3cc4cc(-c5ccc(S(=O)(=O)NC6CCNCC6)cc5)[nH]c4nc3=O)c2)N1 [Compound 1223],> 16
5,"NCCCNCc1ccc(-c2cn3cc[nH]c3nc2=O)cc1 [Compound 563, 6-{4-[(3-Amino-propylamino)-methyl]-phenyl}-1H-imidazo[1,2-a]pyrimidin-7-one]",> 16
6,CS(=O)(=O)c1ccc(-c2cn3cc(-c4ccc(CNCCCNC(=N)N)cc4)c(=O)nc3[nH]2)cc1 [Compound 632],> 16
7,NCCCNCc1ccc(-n2cc3cc(-c4ccsc4)[nH]c3nc2=O)cc1 [Compound 612],> 16
8,NCCCNCc1ccc(-c2cn3cc(-c4ccc(C(=O)NC5CCNCC5)cc4)[nH]c3nc2=O)cc1 [Compound 648],< 16
9,NCCCNCc1ccc(-c2cn3nc(-c4ccc(F)cc4)[nH]c3nc2=O)cc1 [Compound 662],> 16
10,NCCCN(CCCN)Cc1ccc(-n2cc3cc[nH]c3nc2=O)cc1 [Compound 154],> 16
11,NCCCNCc1ccc(-c2cn3cc(-c4ccc(S(=O)(=O)N5CC[C@@H](F)C5)cc4)[nH]c3nc2=O)cc1 [Compound 743],> 16
12,COCCOCCN(C1CCNCC1)S(=O)(=O)c1cccc(-c2cc3cn(-c4ccc(CN)cc4)c(=O)nc3[nH]2)c1 [Compound 1158],> 16
13,NC(=O)c1ccc(-n2cc3cc(-c4ccc(S(=O)(=O)N(CCOc5ccc(F)cc5)C5CCNCC5)cc4)[nH]c3nc2=O)cc1 [Compound 1080],> 16
14,NCCCCN1CCC(n2cc3c(nc2=O)[nH]c2ccccc23)C1 (stereo not drawn) [Compound 542],> 16
15,N=C(N)NCCCNCc1ccc(-c2cn3cc(-c4ccc(C(=O)N5C6CCC5CC(=O)C6)cc4)[nH]c3nc2=O)cc1 [Compound 703],> 16
16,CNCc1ccc(-n2cc3cc(-c4ccc(S(=O)(=O)N(CCCN5Cc6ccccc6C5)C5CCNCC5)cc4)[nH]c3nc2=O)cc1 [Compound 1054],> 16
17,CN(C)CCCOc1cccc(-c2cc3cn(-c4ccc(CN)cc4)c(=O)nc3[nH]2)c1 [Compound 1113],> 16
18,NCCCN(CCCN)Cc1ccc(-n2cc3cc(-c4ccc(S(=O)(=O)NC5CCNCC5)cc4)[nH]c3nc2=O)cc1 [Compound 198],< 16
19,CC(C)(C)c1ccc(-c2cc3cn(-c4ccc(CNCCCN)cc4)c(=O)nc3[nH]2)cc1 [Compound 634],< 16
20,CN(CCCNCc1ccc(-n2cc3cc(-c4ccc(C(=O)NC5CCNCC5)cc4)[nH]c3nc2=O)cc1)C(=N)N [Compound 241],< 16
21,NCCCNCc1ccc(-n2cc3cc(CCN[C@@H]4CCCNC4)[nH]c3nc2=O)cc1 [Compound 814],< 16
22,NC(=O)/N=C(/N)NCCNCc1ccc(-n2cc3cc(-c4ccc(C(=O)NC5CCNCC5)cc4)[nH]c3nc2=O)cc1 [Compound 229],< 16
23,N=C(N)NCCCN(CCCN)Cc1ccc(-n2cc3cc[nH]c3nc2=O)cc1 [Compound 194],< 16
24,N=C(N)NCCCNCc1ccc(-n2cc3cc(CCS(=O)(=O)NC4CCNCC4)[nH]c3nc2=O)cc1 [Compound 926],< 16
25,N#CCCCOc1cccc(-c2cc3cn(-c4ccc(CNCCCNC(=N)N)cc4)c(=O)nc3[nH]2)c1 [Compound 1203],> 16
26,N=C(N)NCCCNCc1ccc(-c2cn3cc(-c4ccc(C(=O)N5CCNCC5)cc4)[nH]c3nc2=O)cc1 [Compound 683],< 16
27,N=C(N)NCCCNCc1ccc(-c2cn3cc(-c4ccc(C(=O)N5CCS(=O)(=O)CC5)cc4)[nH]c3nc2=O)cc1 [Compound 700],> 16
28,NCCCN(CCCN)Cc1ccc(-n2cc3cc(-c4ccc(C(=O)NC5CCOCC5)cc4)[nH]c3nc2=O)cc1 [Compound 193],> 16
29,NCCCCCN1CCN(c2cn3cc(-c4ccc(Br)cc4)[nH]c3nc2=O)CC1 [Compound 883],> 16
30,NC1CCN(Cc2ccc(-n3cc4cc(-c5ccc(S(=O)(=O)N6CCN7CCC6CC7)c(F)c5)[nH]c4nc3=O)cc2)CC1 [Compound 264],> 16
